One block for each molecule: values may come before it.
Key:
[1] = target: estrogen related receptor alpha (ERRα) (Homo sapiens, UniProt P11474); details: FIG. 5
Description: [drawing 18] on the degradation of estrogen related receptor alpha (ERRα).

ERRα = target: T1, ERRα (Homo sapiens, UniProt P11474); assay: ERRα degradation in ST-486 cells; format: cell-based; parameters: degration of ERRα in either MCF-7 cells or ST-486 cells; endogenous in cells; host or cells: ST-486; details: ST486, column C, read-out: ERRα Degradation Dmax (Estimated) ST-486 cells
T1 sequence (P11474 1-423): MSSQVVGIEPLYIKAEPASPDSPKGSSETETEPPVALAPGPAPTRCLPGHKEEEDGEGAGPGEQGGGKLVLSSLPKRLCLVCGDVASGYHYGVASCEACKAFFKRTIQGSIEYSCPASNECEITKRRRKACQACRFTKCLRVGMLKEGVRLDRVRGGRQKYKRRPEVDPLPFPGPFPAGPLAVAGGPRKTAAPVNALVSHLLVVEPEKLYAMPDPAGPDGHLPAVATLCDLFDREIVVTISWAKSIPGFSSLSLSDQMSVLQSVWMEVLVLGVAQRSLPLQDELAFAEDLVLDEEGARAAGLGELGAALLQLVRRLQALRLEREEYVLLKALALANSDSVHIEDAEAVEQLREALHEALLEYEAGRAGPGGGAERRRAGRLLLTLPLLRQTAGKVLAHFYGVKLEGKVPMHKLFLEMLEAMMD
Protocol: Using the methods as described herein, the following exemplary PROTAC compounds were prepared (see Table below). The exemplary compounds were also assayed for their ability to effectuate the degration of ERRα in either MCF-7 cells or ST-486 cells. Thus, in certain embodiments, the description provides the compounds below, including compositions comprising effective amount of a compound as listed below or a derivative, analog, or a prodrug of the same, in combination with at least one of a pharmaceutically acceptable carrier, another active agent, including a second PROTAC molecule as described herein or a combination thereof. In additional embodiments, the disclosure provides a method of treating a disease or condition in a subject in need thereof, comprising administering a composition comprising an effective amount of a compound listed below, wherein the composition is effective for treating or ameliorating a symptom of the disease or condition.
Legend for following table: A=ERRα Degradation Dmax (Estimated) MCF-7 cells; B=ERRα Degradation DC50 (Estimated) MCF-7 cells; C=ERRα Degradation Dmax (Estimated) ST-486 cells; D=ERRα Degradation DC50 (Estimated) ST-486 cells

VHL = VHL (Homo sapiens, UniProt P40337); assay: VHL binding (stereocenter inversion); details: inversion of stereocenter(s) of the VHL ligand
THP-1 cells = assay: Trypan Blue cell viability assay; format: cell-based; details: 16 hours
Protocol: FIG. 13 is a cell viability graph illustrating that PROTAC_RIPK2 is not toxic to cells. THP-1 cells were treated with the indicated concentration sof PROTAC_RIPK2 or PROTAC_RIPK2_epi for 16 hours, followed by a Trypan Blue assay to determine cell viability. Error bars represent mean and S.D.

RIPK2 = RIPK2 (Homo sapiens, UniProt O43353); assay: In vitro RIPK2 ubiquitination, reconstituted ubiquitination cascade; format: biochemical; details: quenched 15 min after initiation, PAGE and autoradiography
Protocol: Ubiquitination reactions were performed in three stages. In the first stage, RIPK2 (final 500 nM) was incubated for 10 min at room temperature with [^32P]g-ATP in kinase buffer (25 mM Tris pH 7.5, 50 mM KCl, 2 mM Mg(CH3CO2)2, 2 mM MnCl2, 2 mM DTT) to radiolabel RIPK2 through auto-phosphorylation. In the second stage, ubiquitination buffer (25 mM Tris pH 7.5, 5 mM MgCl2, 100 mM NaCl, 2 mM ATP, 0.1 mg/ml BSA, and 2 mM DTT) was added to complete auto-phosphorylation, and then VHL (final 250 nM) and indicated PROTACs (various concentrations) were added to the mixture to allow ternary complex formation. In parallel, UbE1 (final 25 nM), Ubc4 (final 250 nM), and ubiquitin (final 116 μM) were mixed in ubiquitination buffer to allow charging of the E2 enzyme with activated ubiquitin. In stage three of the reaction, the RIPK2-PROTAC-VHL and UbE1-Ubc4˜Ub mixtures were combined, and incubated at room temperature for various times before being quenched with Sample Buffer containing 5% b-mercaptoethanol. Ubiquitinated RIPK2 was then separated by 4-15% SDS-PAGE and imaged using a PhosphoImager Screen overnight.
RIPK2 was labeled by autophosphorylation and then incubated with the indicated concentrations of PROTAC and the reconstituted ubiquitination cascade. Samples were quenched 15 min after initiation of the reaction, and imaged by PAGE and autoradiography. RIPK2-Ubn is indicated.

Sequence of RIPK2 (O43353 whole entry, species assumed): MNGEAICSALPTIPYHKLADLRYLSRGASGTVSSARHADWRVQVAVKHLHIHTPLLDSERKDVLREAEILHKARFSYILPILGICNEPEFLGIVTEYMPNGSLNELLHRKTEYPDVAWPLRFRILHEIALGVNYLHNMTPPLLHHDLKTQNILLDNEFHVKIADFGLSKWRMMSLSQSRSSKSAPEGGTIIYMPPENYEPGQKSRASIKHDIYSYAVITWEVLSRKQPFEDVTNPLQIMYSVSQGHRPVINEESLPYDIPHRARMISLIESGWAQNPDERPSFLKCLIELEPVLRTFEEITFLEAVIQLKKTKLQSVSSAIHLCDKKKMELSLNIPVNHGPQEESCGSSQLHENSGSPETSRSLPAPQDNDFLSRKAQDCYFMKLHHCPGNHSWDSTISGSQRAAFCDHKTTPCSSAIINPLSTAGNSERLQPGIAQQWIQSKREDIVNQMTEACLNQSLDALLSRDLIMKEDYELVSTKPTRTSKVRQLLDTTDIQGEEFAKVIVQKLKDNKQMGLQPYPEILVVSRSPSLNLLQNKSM
Sequence of RIPK2 (P40337 whole entry, species assumed, further chain): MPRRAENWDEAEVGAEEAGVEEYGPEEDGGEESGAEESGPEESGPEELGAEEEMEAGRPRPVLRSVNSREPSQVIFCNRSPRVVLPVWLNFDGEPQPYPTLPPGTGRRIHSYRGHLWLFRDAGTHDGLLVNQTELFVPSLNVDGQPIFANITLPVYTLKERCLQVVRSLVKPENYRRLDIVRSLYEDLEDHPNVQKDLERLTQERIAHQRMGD
Sequence of RIPK2 (Q15370 whole entry partner, species assumed): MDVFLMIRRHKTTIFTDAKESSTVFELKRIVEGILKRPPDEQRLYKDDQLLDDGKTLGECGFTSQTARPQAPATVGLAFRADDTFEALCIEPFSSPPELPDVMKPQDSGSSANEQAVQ
Sequence of RIPK2 (Q15369 whole entry partner, species assumed): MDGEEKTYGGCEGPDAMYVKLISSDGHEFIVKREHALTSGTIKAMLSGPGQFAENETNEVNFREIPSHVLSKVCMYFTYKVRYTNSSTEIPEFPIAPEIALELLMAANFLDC
Sequence of RIPK2 (Q13617 whole entry partner, species assumed): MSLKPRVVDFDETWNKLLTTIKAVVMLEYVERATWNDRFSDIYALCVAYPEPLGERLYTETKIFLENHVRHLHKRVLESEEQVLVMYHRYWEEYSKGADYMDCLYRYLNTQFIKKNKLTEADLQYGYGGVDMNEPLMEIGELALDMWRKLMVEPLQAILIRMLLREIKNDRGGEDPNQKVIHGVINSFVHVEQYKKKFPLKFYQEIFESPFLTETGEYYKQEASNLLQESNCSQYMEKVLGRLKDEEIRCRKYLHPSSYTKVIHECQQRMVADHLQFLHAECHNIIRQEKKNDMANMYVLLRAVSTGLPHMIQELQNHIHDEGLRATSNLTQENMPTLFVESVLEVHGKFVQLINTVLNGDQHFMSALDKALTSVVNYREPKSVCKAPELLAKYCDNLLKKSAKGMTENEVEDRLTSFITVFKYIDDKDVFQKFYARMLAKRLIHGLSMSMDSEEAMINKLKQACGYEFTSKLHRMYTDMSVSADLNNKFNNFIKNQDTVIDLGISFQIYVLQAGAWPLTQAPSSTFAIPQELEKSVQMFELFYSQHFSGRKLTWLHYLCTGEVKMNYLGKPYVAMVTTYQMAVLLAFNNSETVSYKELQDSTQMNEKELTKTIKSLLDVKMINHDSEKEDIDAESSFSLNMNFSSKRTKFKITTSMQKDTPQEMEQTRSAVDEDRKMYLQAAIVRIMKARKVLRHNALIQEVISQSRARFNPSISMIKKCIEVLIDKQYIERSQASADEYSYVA
Sequence of RIPK2 (P62877 whole entry partner, species assumed): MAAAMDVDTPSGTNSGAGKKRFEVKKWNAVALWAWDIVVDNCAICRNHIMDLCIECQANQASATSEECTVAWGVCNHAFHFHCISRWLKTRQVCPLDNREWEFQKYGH
Sequence of VHL (P40337 whole entry, species assumed): as the sequence (P40337 whole entry, species assumed, further chain) above
Sequence of VHL (Q15370 whole entry partner, species assumed): as the sequence (Q15370 whole entry partner, species assumed) above
Sequence of VHL (Q15369 whole entry partner, species assumed): as the sequence (Q15369 whole entry partner, species assumed) above

- effect on the degradation of estrogen related receptor alpha (ERRα) [1]: lack of effect
Structure (SMILES): COc1cc(/C=C2\SC(=O)NC2=O)ccc1Oc1ccc(C#N)cc1C(F)(F)F

- Dmax (ERRα): 98%
Structure (SMILES): COc1cc(/C=C2\SC(=O)N(CCOCCC(=O)N[C@H](C(=O)N3C[C@H](O)C[C@H]3C(=O)NCc3ccc(-c4scnc4C)cc3)C(C)(C)C)C2=O)ccc1Oc1ccccc1C(F)(F)F [ARV N000414]

- VHL binding (VHL): abolishes VHL binding
Structure (SMILES): COc1cc(/C=C2\SC(=O)N(CCOCCC(=O)N[C@H](C(=O)N3C[C@@H](O)C[C@H]3C(=O)NCc3ccc(-c4scnc4C)cc3)C(C)(C)C)C2=O)ccc1Oc1ccc(C#N)cc1C(F)(F)F [PROTAC_ERRα_epi]

- direct RIPK2 ubiquitination in vitro (RIPK2): mediates direct RIPK2 ubiquitination
Structure (SMILES): Cc1ncsc1-c1ccc(CNC(=O)[C@@H]2C[C@@H](O)CN2C(=O)[C@@H](NC(=O)COCCOCCOCCOCCOc2cc3nccc(Nc4ccc5scnc5c4)c3cc2S(=O)(=O)C(C)(C)C)C(C)(C)C)cc1 [PROTAC_RIPK2]
- cell viability (toxicity to cells) (THP-1 cells): not toxic

From patent US10071164B2, “Estrogen-related receptor alpha based protac compounds and associated methods of use” (Yale University, priority 2014, dated 2018)
